In PubChem BioAssay (NCI):
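How tested: cells in 96-well plates exposed to compound for 48 hours at five concentrations. TGI marks complete inhibition of growth.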

Key:
Experiment in all cases: NCI-60 cell line screen, 48 h
[1] = tested on: A549 NSCLC
[2] = tested on: HCT-116 colon
[3] = tested on: DMS 273 small cell lung
[4] = tested on: HOP-62 NSCLC
[5] = tested on: SNB-19 CNS
[6] = tested on: HOP-92 NSCLC
[7] = tested on: OVCAR-3 ovarian
[8] = tested on: OVCAR-4 ovarian
[9] = tested on: RXF 393 renal
[10] = tested on: UACC-257 melanoma
[11] = tested on: NCI-H226 lung
[12] = tested on: EKVX NSCLC
[13] = tested on: NCI-H23 lung
[14] = tested on: UACC-62 melanoma
[15] = tested on: SN12C renal
[16] = tested on: MOLT-4 leukemia
[17] = tested on: CCRF-CEM leukemia
[18] = tested on: SK-MEL-5 melanoma
[19] = tested on: K-562 leukemia
[20] = tested on: SW-620 colon
[21] = tested on: DMS 114 small cell lung
[22] = tested on: SK-MEL-28 melanoma
[23] = tested on: SF-539 CNS
[24] = tested on: MALME-3M melanoma
[25] = tested on: COLO 205 colon
[26] = tested on: TK-10 renal
[27] = tested on: NCI-H460 lung
[28] = tested on: SK-OV-3 ovarian
[29] = tested on: UO-31 renal
[30] = tested on: 786-0 renal
[31] = tested on: SF-295 CNS
[32] = tested on: OVCAR-5 ovarian
[33] = tested on: RPMI-8226 leukemia
[34] = tested on: RXF-631 renal
[35] = tested on: M14 melanoma
[36] = tested on: IGROV1 ovarian
[37] = tested on: M19-MEL melanoma
[38] = tested on: HL-60(TB) leukemia
[39] = tested on: KM12 colon
[40] = tested on: LXFL 529 NSCLC
[41] = tested on: HT29 colon
[42] = tested on: U251 CNS
[43] = tested on: SK-MEL-2 melanoma
[44] = tested on: KM20L2 colon
[45] = tested on: XF 498 CNS
[46] = tested on: NCI-H522 lung
[47] = tested on: HCT-15 colon
[48] = tested on: SF-268 CNS
[49] = tested on: HCC-2998 colon
[50] = tested on: LOX IMVI melanoma
[51] = tested on: ACHN renal
[52] = tested on: DLD-1 colon
[53] = tested on: SNB-78 CNS
[54] = tested on: SNB-75 CNS
[55] = tested on: OVCAR-8 ovarian
[56] = tested on: A498 renal
[57] = tested on: SR leukemia
[58] = tested on: CAKI-1 renal

SMILES: O=C1Nc2cc([N+](=O)[O-])ccc2NC1/C(=N\Nc1ccccc1)C(O)c1cccc([N+](=O)[O-])c1 (stereo unspecified)
- TGI [1]: > 100 µM
- TGI [2]: > 100 µM
- TGI [3]: > 100 µM
- TGI [4]: > 100 µM
- TGI [5]: > 100 µM
- TGI [6]: > 100 µM
- TGI [7]: > 100 µM
- TGI [8]: > 100 µM
- TGI [9]: > 100 µM
- TGI [10]: > 100 µM
- TGI [11]: > 100 µM
- TGI [12]: > 100 µM
- TGI [13]: > 100 µM
- TGI [14]: > 100 µM
- TGI [15]: > 100 µM
- TGI [16]: > 100 µM
- TGI [17]: > 100 µM
- TGI [18]: 45.1 µM
- TGI [19]: > 100 µM
- TGI [20]: > 100 µM
- TGI [21]: > 100 µM
- TGI [22]: > 100 µM
- TGI [23]: > 100 µM
- TGI [24]: > 100 µM
- TGI [25]: > 100 µM
- TGI [26]: > 100 µM
- TGI [27]: > 100 µM
- TGI [28]: > 100 µM
- TGI [29]: > 100 µM
- TGI [30]: > 100 µM
- TGI [31]: > 100 µM
- TGI [32]: > 100 µM
- TGI [33]: > 100 µM
- TGI [34]: > 100 µM
- TGI [35]: > 100 µM
- TGI [36]: > 100 µM
- TGI [37]: > 100 µM
- TGI [38]: > 100 µM
- TGI [39]: > 100 µM
- TGI [40]: > 100 µM
- TGI [41]: > 100 µM
- TGI [42]: > 100 µM
- TGI [43]: > 100 µM
- TGI [44]: > 100 µM
- TGI [45]: > 100 µM
- TGI [46]: > 100 µM
- TGI [47]: 44.7 µM
- TGI [48]: > 100 µM
- TGI [49]: > 100 µM
- TGI [50]: > 100 µM
- TGI [51]: > 100 µM
- TGI [52]: > 100 µM
- TGI [53]: > 100 µM
- TGI [54]: > 100 µM
- TGI [55]: > 100 µM

SMILES: CCN(c1ccc(Br)cc1)c1c(Br)c(=O)nc2ccccn12
- TGI [56]: > 100 µM
- TGI [1]: > 100 µM
- TGI [2]: > 100 µM
- TGI [3]: > 100 µM
- TGI [4]: > 100 µM
- TGI [5]: > 100 µM
- TGI [6]: > 100 µM
- TGI [7]: > 100 µM
- TGI [11]: > 100 µM
- TGI [12]: > 100 µM
- TGI [13]: > 100 µM
- TGI [14]: > 100 µM
- TGI [15]: > 100 µM
- TGI [16]: > 100 µM
- TGI [17]: > 100 µM
- TGI [57]: > 100 µM
- TGI [18]: > 100 µM
- TGI [19]: > 100 µM
- TGI [58]: > 100 µM
- TGI [20]: > 100 µM
- TGI [21]: > 100 µM
- TGI [22]: > 100 µM
- TGI [23]: > 100 µM
- TGI [24]: > 100 µM
- TGI [25]: > 100 µM
- TGI [26]: > 100 µM
- TGI [27]: > 100 µM
- TGI [28]: > 100 µM
- TGI [29]: > 100 µM
- TGI [30]: > 100 µM
- TGI [32]: > 100 µM
- TGI [33]: > 100 µM
- TGI [34]: > 100 µM
- TGI [35]: > 100 µM
- TGI [36]: > 100 µM
- TGI [37]: > 100 µM
- TGI [39]: > 100 µM
- TGI [40]: > 100 µM
- TGI [41]: > 100 µM
- TGI [42]: > 100 µM
- TGI [43]: > 100 µM
- TGI [44]: > 100 µM
- TGI [45]: > 100 µM
- TGI [46]: > 100 µM
- TGI [47]: > 100 µM
- TGI [48]: > 100 µM
- TGI [51]: > 100 µM
- TGI [52]: > 100 µM
- TGI [53]: > 100 µM
- TGI [54]: > 100 µM
- TGI [55]: > 100 µM
